The record followed here is patent US20240262795A1, “PYRAZINE COMPOUNDS AS INHIBITORS OF FLT3” (Biomea Fusion, Inc., priority 2021, published 2024).

The target of one test is T1, WT FLT3 (Homo sapiens, UniProt P36888).
T1 construct: purchased Invitrogen PR4666C
T1 sequence (P36888 564-993 limits assumed): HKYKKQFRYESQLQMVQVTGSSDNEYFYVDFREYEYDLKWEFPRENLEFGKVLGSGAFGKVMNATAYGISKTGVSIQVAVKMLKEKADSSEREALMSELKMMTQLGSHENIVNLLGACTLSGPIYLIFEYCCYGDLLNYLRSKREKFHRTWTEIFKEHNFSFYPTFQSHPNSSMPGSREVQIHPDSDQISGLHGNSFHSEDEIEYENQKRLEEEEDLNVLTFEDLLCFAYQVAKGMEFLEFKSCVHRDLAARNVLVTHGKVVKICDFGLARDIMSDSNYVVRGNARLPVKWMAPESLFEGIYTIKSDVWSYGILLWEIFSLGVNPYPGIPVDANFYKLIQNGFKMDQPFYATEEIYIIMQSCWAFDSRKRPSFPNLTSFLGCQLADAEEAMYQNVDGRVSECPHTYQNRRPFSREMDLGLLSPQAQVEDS
The test can be described thus: WT FLT3 Lance Ultra TR-FRET kinase assay. The class given is biochemical. The source says: (§1) High throughput 384-well Lance Ultra TR-FRET based kinase assays were established for the WT FLT3 and FLT3-ITD enzymes and employed a ULight-labeled peptide […] and FLT3 proteins labelled with Eu-conjugated antibody […] (WuXi Aptec). The principle of TR-FRET is based on transfer of energy between a donor and acceptor fluorophore that results when the fluorophores are within close proximity (˜100 Å) of each other. Recombinant WT FLT3 (#PR4666C, M.W. 48.6 kDa) was purchased from Invitrogen and FLT3-ITD (FLT3-ITD-W51, #F-12-12CG-10, M.W. 76 kDa) was purchased from Signalchem. Optimal assay conditions for the WT FLT3 enzyme assay were as follows: 0.5 nM FLT3 protein, 50 nM ULight-JAK-1 (Tyr1023) substrate peptide (PerkinElmer #TRF0121), 100 μM ATP, 60 min reaction time. Optimal assay conditions for the FLT3-ITD enzyme assay were as follows: 0.0625 nM FLT3-ITD protein, 50 nM ULight-JAK-1 (Tyr1023) substrate peptide, 50 μM ATP, 90 min reaction time. Briefly, 11 dose 3× serial dilutions were prepared for the test compounds and the reference compound and 100 nanoliters transferred to appropriate wells of 384-well assay plates. Five microliters of 2× enzyme/peptide were added into assay wells, assay plates centrifuged at 1000 rpm for about 30 seconds, sealed with sealing film and incubated for 30 min at 23° C. Assay buffer comprised 50 mM HEPES (pH 7.5), 1 mM EDTA, 0.01% Brij-35, 10 mM MgCl2 and 2 mM DTT. Next 5 μl of a 2× ATP mixture were added into the assay wells and the plates centrifuged at 1000 rpm about 30 seconds, sealed with sealing film and incubated for 23° C. for appropriate duration. Following assay incubation (30 min for WT FLT3 and 60 min for FLT3-ITD) 10 μl 2× Detection Mixture (Eu-W1024 Anti-phosphotyrosine (PT66) 2 nM and EDTA 10 mM) was added to assay wells, assay plates centrifuge at 1000 rpm about 1 minutes, sealed with sealing film and incubated at 23° C. for 60 minutes. Assay plates were read on a Perkin Elmer Envision reader at two wavelengths (665/615) and the ratio of […] calculated.
(§2) Data was expressed as % of inhibition relative to the vehicle control and calculated as follows:
(§3) Results were analyzed by XLFIT5 as % inhibition vs. log [compound concentration] and IC50 values were calculated by non-linear regression using four parameter-logistic equation. Fit=(A+((B−A)/(1+((C/x)^D)))). Res=(y−fit).
Background: In TR-FRET formats the signal depends on donor and acceptor labels being close together.

The target in the next test is T2, FLT3-ITD (Homo sapiens, UniProt P36888, DUP595-601).
T2 construct: purchased Signalchem F-12-12CG-10
T2 sequence (P36888 with tags, fused parts or gaps DUP595-601 limits assumed): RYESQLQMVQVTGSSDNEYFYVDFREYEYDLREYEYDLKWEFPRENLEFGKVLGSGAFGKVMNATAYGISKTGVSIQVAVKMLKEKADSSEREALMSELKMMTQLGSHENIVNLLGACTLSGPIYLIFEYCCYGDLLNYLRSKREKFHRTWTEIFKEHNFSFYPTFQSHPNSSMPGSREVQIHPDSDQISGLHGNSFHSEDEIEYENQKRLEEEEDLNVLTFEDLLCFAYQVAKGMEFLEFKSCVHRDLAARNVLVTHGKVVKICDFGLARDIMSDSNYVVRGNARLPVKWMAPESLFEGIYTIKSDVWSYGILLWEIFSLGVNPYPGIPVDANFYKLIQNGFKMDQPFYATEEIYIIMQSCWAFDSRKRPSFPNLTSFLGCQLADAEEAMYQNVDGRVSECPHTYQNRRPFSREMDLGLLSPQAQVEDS
The test can be described thus: FLT3-ITD Lance Ultra TR-FRET kinase assay. The class given is biochemical.
Excerpt: as §1, §2, §3

The test system of the next test is K-562. Kind of test: Proliferation inhibition, CellTiter-Glo, K-562. The class given is cell-based, human. Particulars: Homo sapiens, K562, 96 h; K-562 cells, IC50 (4 days), CellTiter-Glo; read-out: K-562 IC50. The method in brief:
(§4)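 About 10,000 cells per well in RPMI-1640 with 10% FBS. Compounds added 2 h after seeding at eight concentrations in duplicate (0.2% DMSO as 100% proliferation), then incubated ~96 h at 37° C, 5% CO2. ATP measured by CellTiter-Glo luminescence; IC50 from four-parameter logistic fit.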
In general terms: Cellular ATP, detected with luciferase, serves as a proxy for viable cell number.

The test system of a further test is MOLM-13. The test can be described thus: Proliferation inhibition, CellTiter-Glo, MOLM-13. It is filed as cell-based, human. The note with it: Homo sapiens, 96 h; MOLM-13 cells, IC50 (4 days), CellTiter-Glo; read-out: MOLM-13 IC50. The procedure, abridged: as §4
The test system of the next test is MV-4-11. Kind of test: Proliferation inhibition, CellTiter-Glo, MV-4-11. The note with it: Homo sapiens, MV4-11, 96 h; MV-4:11 cells, IC50 (4 days), CellTiter-Glo; read-out: MV-4:11 IC50. The class given is cell-based, human. The method in brief:
as §4

A word on the IC50: it is the concentration at which inhibition is half-maximal. For the molecule `CCc1nc(C(N)=O)c(Nc2cccc(CCNC(=O)[C@H](C)NC(=O)/C=C/CN(C)C)c2)nc1N(C)C(C)C` [Compound 502, (S,E)-3-((3-(2-(2-(4-(dimethylamino)but-2-enamido)propanamido)ethyl)phenyl)amino)-6-ethyl-5-(isopropyl(methyl)amino) pyrazine-2-carboxamide], the half-maximal inhibitory concentration (IC50) is 0.101 to 0.2 nM against WT FLT3; 0.201 to 0.5 nM at FLT3-ITD; above 500 nM in the test with K-562; below 1 nM in the test on MOLM-13; below 1 nM with MV-4-11.
`CCc1nc(Nc2cccc([C@@H](C)CNC(=O)CN(C)C(=O)/C=C/CN(C)C)c2)c(C(N)=O)nc1CC` [Compound 503, (R, E)-3-((3-(1-(2-(4-(dimethylamino)-N-methylbut-2-enamido)acetamido)propan-2-yl)phenyl)amino)-5,6-diethylpyrazine-2-carboxamide]: the IC50 is 0.201 to 0.5 nM on WT FLT3; 0.501 to 1 nM on FLT3-ITD; above 500 nM in the test with K-562; below 1 nM in the test on MOLM-13; below 1 nM in the test on MV-4-11.
As for `CCc1nc(C(N)=O)c(Nc2cccc([C@@H](C)CNC(=O)CN(C)C(=O)/C=C/CN3CCC3)c2)nc1C(C)C` [Compound 509, (R,E)-3-((3-(1-(2-(4-(azetidin-1-yl)-N-methylbut-2-enamido)acetamido)propan-2-yl)phenyl)amino)-6-ethyl-5-isopropylpyrazine-2-carboxamide], the IC50 at WT FLT3 was 0.201 to 0.5 nM; against FLT3-ITD it was 0.501 to 1 nM; in the test with K-562, above 500 nM; with MOLM-13, below 1 nM; with MV-4-11, 1 to 10 nM.
The like results for `C=CC(=O)N(C)CC(=O)NCCc1cccc(Nc2nc(CC(C)C)c(CC)nc2C(N)=O)c1` [Compound 510, 6-ethyl-5-isobutyl-3-((3-(2-(2-(N-methylacrylamido)acetamido)ethyl)phenyl)amino) pyrazine-2-carboxamide] were, in that order, above 1 nM, above 1 nM, above 500 nM, 10 to 100 nM and 10 to 100 nM.
In the same order, the values of `C=CC(=O)N(C)CC(=O)NCCc1cccc(Nc2nc(N(C)CC)c(CC)nc2C(N)=O)c1` [Compound 511, 6-ethyl-5-(ethyl(methyl)amino)-3-((3-(2-(2-(N-methylacrylamido)acetamido)ethyl)phenyl)amino) pyrazine-2-carboxamide] are 0.201 to 0.5 nM, at most 0.1 nM, above 500 nM, below 1 nM and 1 to 10 nM.
Turning to `C=CC(=O)N(C)CC(=O)NC[C@H](C)c1cccc(Nc2nc(N(C)CC)c(CC)nc2C(N)=O)c1` [Compound 513, (R)-6-ethyl-5-(ethyl (methyl)amino)-3-((3-(1-(2-(N-methylacrylamido)acetamido)propan-2-yl)phenyl)amino) pyrazine-2-carboxamide], the 50% inhibitory concentration (IC50) on WT FLT3 was 0.501 to 1 nM; at FLT3-ITD it was 0.201 to 0.5 nM; in the test with K-562, above 500 nM; in the test on MOLM-13, 1 to 10 nM; in the test on MV-4-11, 10 to 100 nM.
In the same order, the values of `C=CC(=O)N(C)CC(=O)NCCc1cc(Nc2nc(N(C)CC)c(CC)nc2C(N)=O)ccn1` [Compound 515, 6-ethyl-5-(ethyl(methyl)amino)-3-((2-(2-(2-(N-methylacrylamido)acetamido)ethyl)pyridin-4-yl)amino) pyrazine-2-carboxamide] are 0.501 to 1 nM, 0.101 to 0.2 nM, above 500 nM, 1 to 10 nM and below 1 nM.
In the case of `CCc1nc(C(N)=O)c(Nc2cccc([C@@H](C)CNC(=O)CN(C)C(=O)/C=C/CN3CCC3)c2)nc1CC(C)C` [Compound 517, (R, E)-3-((3-(1-(2-(4-(azetidin-1-yl)-N-methylbut-2-enamido)acetamido)propan-2-yl)phenyl)amino)-6-ethyl-5-isobutylpyrazine-2-carboxamide], the concentration for half-maximal inhibition (IC50) against WT FLT3 is 0.501 to 1 nM; at FLT3-ITD it was 0.501 to 1 nM; with K-562, above 500 nM; in the test on MOLM-13, 1 to 10 nM; with MV-4-11, 1 to 10 nM.
As for `CCc1nc(Nc2cccc([C@H](C)CNC(=O)CN(C)C(=O)/C=C/CN3CCC3)c2)c(C(N)=O)nc1CC` [Compound 519, (S,E)-3-((3-(1-(2-(4-(azetidin-1-yl)-N-methylbut-2-enamido)acetamido)propan-2-yl)phenyl)amino)-5,6-diethylpyrazine-2-carboxamide], the 50% inhibitory concentration (IC50) at WT FLT3 is above 1 nM; on FLT3-ITD, above 1 nM; in the test on K-562, above 500 nM; in the test with MOLM-13 it was 10 to 100 nM; in the test with MV-4-11 it was 1 to 10 nM.
For the molecule `CCc1nc(C(N)=O)c(Nc2ccnc(CCNC(=O)CN(C)C(=O)/C=C/CN3CCC3)c2)nc1C1CC1` [Compound 520, (E)-3-((2-(2-(2-(4-(azetidin-1-yl)-N-methylbut-2-enamido)acetamido)ethyl)pyridin-4-yl)amino)-5-cyclopropyl-6-ethylpyrazine-2-carboxamide], the half-inhibitory concentration (IC50) is above 1 nM on WT FLT3; 0.501 to 1 nM at FLT3-ITD; above 500 nM in the test on K-562; 1 to 10 nM in the test on MOLM-13; 1 to 10 nM in the test with MV-4-11.
For the molecule `CCc1nc(C(N)=O)c(Nc2cccc(CCNC(=O)CN(C)C(=O)/C=C/CN3CCC3)c2)nc1CC(C)C` [Compound 601, (E)-3-((3-(2-(2-(4-(azetidin-1-yl)-N-methylbut-2-enamido)acetamido)ethyl)phenyl)amino)-6-ethyl-5-isobutylpyrazine-2-carboxamide], the half-maximal inhibitory concentration (IC50) on WT FLT3 was above 1 nM; against FLT3-ITD, 0.501 to 1 nM; in the test with K-562, above 500 nM; in the test on MOLM-13, 1 to 10 nM; in the test on MV-4-11 it was below 1 nM.
Consider `CCc1nc(C(N)=O)c(Nc2ccnc(CCNC(=O)CN(C)C(=O)/C=C/CN(C)C)c2)nc1N(C)CC` [Compound 606, (E)-3-((2-(2-(2-(4-(dimethylamino)-N-methylbut-2-enamido)acetamido)ethyl)pyridin-4-yl)amino)-6-ethyl-5-(ethyl(methyl)amino)pyrazine-2-carboxamide], for which the concentration for half-maximal inhibition (IC50) against WT FLT3 is 0.501 to 1 nM; at FLT3-ITD, 0.201 to 0.5 nM; in the test on K-562, above 500 nM; in the test with MOLM-13 it was 1 to 10 nM; in the test on MV-4-11, below 1 nM.
